Here are results for 19 molecules from patent US12486278B2, “MASP-2 inhibitors and methods of use” (Omeros Corporation, priority 2019, dated 2025).

Where a name gives a salt, the structure may show the parent alone.

T1 sequence (O00187 445-686 limits assumed): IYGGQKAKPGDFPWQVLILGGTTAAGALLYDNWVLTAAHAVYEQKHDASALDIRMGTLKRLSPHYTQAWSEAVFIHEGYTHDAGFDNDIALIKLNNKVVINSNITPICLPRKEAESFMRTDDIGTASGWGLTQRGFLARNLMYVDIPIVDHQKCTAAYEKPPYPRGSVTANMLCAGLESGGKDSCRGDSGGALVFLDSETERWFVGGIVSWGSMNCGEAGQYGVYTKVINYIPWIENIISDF
T1 sequence (O00187 298-444 partner limits assumed): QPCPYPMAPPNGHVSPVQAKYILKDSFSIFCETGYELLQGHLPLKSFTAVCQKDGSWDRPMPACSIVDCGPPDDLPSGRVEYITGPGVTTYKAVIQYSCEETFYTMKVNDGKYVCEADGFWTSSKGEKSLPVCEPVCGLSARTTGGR

This assay concerns the target T1, MASP-2 (CCP1-CCP2-SP) (Homo sapiens, UniProt O00187).
T1 construct: 15 μL of Enzyme MASP-2 (CCP1-CCP2-SP) in Assay Buffer
The assay is described as follows: Enzymatic Assay for MASP-2 (fluorogenic substrate). Type of assay: biochemical. Particulars: fluorogenic substrate based on C2 cleavage site; room temperature, 20 min; 20 mM HEPES pH 7.4, 140 mM NaCl, 0.1% Tween 20. The method, then:
The MASP-2 assay utilizes a fluorogenic substrate, based on the cleavage site for its natural substrate C2. The assay is run at room temperature in an assay buffer containing 20 mM HEPES, pH 7.4, 140 mM NaCl and 0.1% Tween 20. Assay parameters are adjusted such that the assay is linear with respect to time, enzyme, and substrate concentrations. Under these optimized assays conditions, IC50 values are equivalent to Ki values, except in a few cases of “tight binding” inhibitors. Cases of “tight binding” or possible “slow binding” inhibitors are handled by the methods described in Copeland R. A. (2013) Evaluation of Enzyme Inhibitors in Drug Discovery. 2nd Ed., John Wiley and Sons, Inc., Chapters 5-7.
The MASP-2 assay protocol is carried out as follows. Test compounds are serially diluted in DMSO and then 100 nL of each dilution is transferred to the assay plate(s). 10 μL of Assay Buffer is added, followed by 15 μL of Enzyme MASP-2 (CCP1-CCP2-SP) in Assay Buffer. 15 μL of Substrate in Assay Buffer is then added and mixed to start the reactions. After 20 min at room temperature, 15 μL of a stop solution (0.1 M acetic acid) is added, mixed and the plates are read on a SpectraMax i3x Microplate Reader and exported as Excel files. Each assay plate included a “no inhibitor” (DMSO Only) control, a “no enzyme” control and a reference inhibitor control. % Activity values=100*(average test comp. fluorescence−average “no enzyme” fluorescence)/(average “DMSO only” fluorescence−average “no enzyme” fluorescence). IC50 and Ki values are very reproducible, falling well within ±2-fold.
A word on the Ki: it is a dissociation constant, usually derived from enzyme kinetics or from competition with a known ligand. A low value points to a stronger hold on the target. As for `C[C@H](NC(=O)[C@H]1C[C@H](Oc2ccccc2)CN1)C(=O)NCc1cnc2c(c1)c(Cl)cn2C` [Compound I-46, (2R,4S)—N—((S)-1-(((3-Chloro-1-Methyl-1H-Pyrrolo[2,3-B]Pyridin-5-Yl)Methyl)Amino)-1-Oxopropan-2-Yl)-4-Phenoxypyrrolidine-2-Carboxamide Trifluoroacetate], the inhibition constant (Ki) was less than 500 nM.

As for `COC(=O)c1cccc(C[C@@H]2CN[C@@H](C(=O)N[C@@H](C)C(=O)NCc3ccc(N)nc3C)C2)c1` [Compound I-47, Methyl 3-(((3S,5R)-5-(((S)-1-(((6-Amino-2-Methylpyridin-3-Yl)Methyl)Amino)-1-Oxopropan-2-Yl)Carbamoyl)Pyrrolidin-3-Yl)Methyl)Benzoate Dihydrochloride], the Ki was less than 500 nM. The molecule `Cc1nc(N)ccc1CNC(=O)[C@H](C)NC(=O)[C@H]1C[C@H](Cc2cccc(C(=O)O)c2)CN1` [Compound I-48, 3-(((3S,5R)-5-(((S)-1-(((6-Amino-2-Methylpyridin-3-Yl)Methyl)Amino)-1-Oxopropan-2-Yl)Carbamoyl)Pyrrolidin-3-Yl)Methyl)Benzoic Acid Di-Trifluoroacetate] had a Ki of less than 500 nM. The figure for `Cc1nc(N)ccc1CNC(=O)[C@H](C)NC(=O)[C@H]1C[C@H](Cc2cccc(C(=O)NCCCCl)c2)CN1` [Compound I-49, (2R,4S)—N—((S)-1-(((6-Amino-2-Methylpyridin-3-Yl)Methyl)Amino)-1-Oxopropan-2-Yl)-4-(3-((3-Chloropropyl)Carbamoyl)Benzyl)Pyrrolidine-2-Carboxamide Di-Trifluoroacetate] is less than 500 nM; for `COC(=O)c1ccc(C[C@@H]2CN[C@@H](C(=O)N[C@@H](C)C(=O)NCc3ccc(N)nc3C)C2)cc1` [Compound I-50, Methyl 4-(((3S,5R)-5-(((S)-1-(((6-Amino-2-Methylpyridin-3-Yl)Methyl)Amino)-1-Oxopropan-2-Yl)Carbamoyl)Pyrrolidin-3-Yl)Methyl)Benzoate Dihydrochloride] it is less than 500 nM; for `Cc1nc(N)ccc1CNC(=O)[C@H](C)NC(=O)[C@H]1C[C@H](Cc2ccc(C(=O)O)cc2)CN1` [Compound I-51, 4-(((3S,5R)-5-(((S)-1-(((6-Amino-2-Methylpyridin-3-Yl)Methyl)Amino)-1-Oxopropan-2-Yl)Carbamoyl)Pyrrolidin-3-Yl)Methyl)Benzoic Acid Di-Trifluoroacetate] it is less than 500 nM.

In turn, `C[C@H](NC(=O)[C@H]1C=C(C2(c3ccccc3)CC2)CN1)C(=O)NCc1ccc(C(=N)N)cc1` [Compound I-52, (R)—N—((S)-1-((4-Carbamimidoylbenzyl)Amino)-1-Oxopropan-2-Yl)-4-(1-Phenylcyclopropyl)-2,5-Dihydro-1H-Pyrrole-2-Carboxamide Di-Trifluoroacetate] displayed a Ki of less than 500 nM. Molecule `Cc1nc(N)ccc1CNC(=O)[C@H](C)NC(=O)[C@H]1C[C@H](Cc2ccn(C)c(=O)c2)CN1` [Compound I-53, (2R,4S)—N—((S)-1-(((6-Amino-2-Methylpyridin-3-Yl)Methyl)Amino)-1-Oxopropan-2-Yl)-4-((1-Methyl-2-Oxo-1,2-Dihydropyridin-4-Yl)Methyl)Pyrrolidine-2-Carboxamide Di-Trifluoroacetate] came in with a Ki of less than 500 nM. The figure for `COC(=O)c1cccc(C[C@@H]2CN[C@@H](C(=O)N[C@@H](C)C(=O)NCc3ccc(C(=N)N)cc3)C2)c1` [Compound I-54, Methyl 3-(((3S,5R)-5-(((S)-1-((4-Carbamimidoylbenzyl)Amino)-1-Oxopropan-2-Yl)Carbamoyl)Pyrrolidin-3-Yl)Methyl)Benzoate Di-Trifluoroacetate] is less than 500 nM. The figure for `C[C@H](NC(=O)[C@H]1C[C@H](Cc2cccc(C(=O)O)c2)CN1)C(=O)NCc1ccc(C(=N)N)cc1` [Compound I-55, 3-(((3S,5R)-5-(((S)-1-((4-Carbamimidoylbenzyl)Amino)-1-Oxopropan-2-Yl)Carbamoyl)Pyrrolidin-3-Yl)Methyl)Benzoic Acid Di-Trifluoroacetate] is less than 500 nM. The figure for `C[C@H](NC(=O)[C@H]1C[C@H](Cc2ccnc(N)c2)CN1)C(=O)NCc1ccc(C(=N)N)cc1` [Compound I-56, (2R,4S)-4-((2-Aminopyridin-4-Yl)Methyl)-N—((S)-1-((4-Carbamimidoylbenzyl)Amino)-1-Oxopropan-2-Yl)Pyrrolidine-2-Carboxamide Di-Trifluoroacetate] is less than 500 nM. Molecule `Cc1nc(N)ccc1CNC(=O)[C@H](CO)NC(=O)[C@H]1C[C@H](Cc2ccccc2)CN1` [Compound I-57, (2R,4S)—N—((S)-1-(((6-Amino-2-Methylpyridin-3-Yl)Methyl)Amino)-3-Hydroxy-1-Oxopropan-2-Yl)-4-Benzylpyrrolidine-2-Carboxamide Dihydrochloride] yielded a Ki of less than 500 nM.

The molecule `Cc1nc(N)ccc1CNC(=O)[C@@H]1COC(=O)N1C(=O)[C@H]1C[C@H](Cc2ccccc2)CN1` [Compound I-58, (S)—N-((6-Amino-2-Methylpyridin-3-Yl)Methyl)-3-((2R,4S)-4-Benzylpyrrolidine-2-Carbonyl)-2-Oxooxazolidine-4-Carboxamide Di-Trifluoroacetate] came in with a Ki of less than 500 nM. The figure for `C[C@H](NC(=O)[C@H]1C[C@H](Cc2ccccc2)CN1)C(=O)NCc1ccc2nccn2c1` [Compound I-59, (2R,4S)-4-Benzyl-N—((S)-1-((Imidazo[1,2-A]Pyridin-6-Ylmethyl)Amino)-1-Oxopropan-2-Yl Pyrrolidine-2-Carboxamide Trifluoroacetate] is greater than 10000 nM; for `C[C@H](NC(=O)[C@H]1C[C@H](Cc2ccccc2)CN1)C(=O)NCc1ccc2ncc(Cl)n2c1` [Compound I-60, (2R,4S)-4-Benzyl-N—((S)-1-(((3-Chloroimidazo[1,2-A]Pyridin-6-Yl)Methyl)Amino)-1-Oxopropan-2-Yl)Pyrrolidine-2-Carboxamide Trifluoroacetate] it is greater than 10000 nM.

In turn, `Cc1nc(N)ccc1CNC(=O)[C@H]1CC(F)(F)CN1C(=O)[C@@H]1C[C@@H](Cc2ccc(Br)cc2)CN1` [Compound I-61, (R)—N-((6-Amino-2-Methylpyridin-3-Yl)Methyl)-1-((2S,4R)-4-(4-Bromobenzyl)Pyrrolidine-2-Carbonyl)-4,4-Difluoropyrrolidine-2-Carboxamide Dihydrochloride] displayed a Ki of less than 500 nM. The figure for `Cc1nc(N)ccc1CNC(=O)[C@@H]1CCN1C(=O)[C@H]1C[C@H](Cc2ccc(-c3ccccc3)cc2)CN1` [Compound I-62, (S)-1-((2R,4S)-4-([1,1′-Biphenyl]-4-Ylmethyl)Pyrrolidine-2-Carbonyl)-N-((6-Amino-2-Methylpyridin-3-Yl)Methyl)Azetidine-2-Carboxamide Di-Trifluoroacetate] is less than 500 nM. `Cc1nc(N)ccc1CNC(=O)[C@@H]1CCN1C(=O)[C@H]1C[C@@H](c2ccccc2)CCN1` [Compound I-63, (S)—N-((6-Amino-2-Methylpyridin-3-Yl)Methyl)-1-((2R,4S)-4-Phenylpiperidine-2-Carbonyl)Azetidine-2-Carboxamide Di-Trifluoroacetate] showed a Ki of less than 500 nM. `Cc1nc(N)ccc1CNC(=O)[C@@H]1CCN1C(=O)[C@H]1C[C@H](c2cccc(-c3ccccc3)c2)CN1` [Compound I-64, (S)-1-((2R,4R)-4-([1,1′-Biphenyl]-3-Yl)Pyrrolidine-2-Carbonyl)-N-((6-Amino-2-Methylpyridin-3-Yl)Methyl)Azetidine-2-Carboxamide Di-Trifluoroacetate] displayed a Ki of less than 500 nM.
